Measurements: patent US7648964B2, “Use of lacritin in promoting ocular cell survival” (University of Virginia Patent Foundation, priority 2004, dated 2010)
“Also recorded” adds a separate entry of the source.

What was measured:
NFATC1 = NFATC1 translocation in HSG cells (immunofluorescence); type: cell-based, human; settings: cyclosporine 1 μM; nifedipine 10 μM
From the text: In order to dissect the molecular pathways leading to the cell survival by lacritin, protein kinases and transcriptional factors were studied by Western blotting and immunofluorescence microscopy. […] On the other hand, there were increased activities of transcriptional factors such as nuclear factor of activated T-cells (NFAT) and NF-kappaB. In FIG. 4, translocation of PKC alpha and NFAT was detected by immunofluorescence coupled with confocal microscopic imaging. In resting HSG cells (left three images), PKC alpha distributes mainly in cytosol and membrane. Similarly, NFATc1 was also found to localize largely in cytosol. Cellular co-location of PKC alpha and NFATc1 is apparent upon merging the two immunofluorescent images, as the merged cy3 and FITC labels produce distinctive yellow color.
Images were acquired at 2-3 s intervals using LaserSharp2000 software (Bio-Rad) and store on disc for later analysis. For translocation assays, HSG cells […] phorbol 12-myristate 13-acetate, […], then washed with phosphate-buffered saline, formaldehyde-fixed, blocked with phosphate-buffered saline containing 1% bovine serum albumin and 10% goat serum, incubated with anti-PKCα (C-20) or anti-NFATC1 (mab 7A6) (both from Santa Cruz Biotechnology Inc.; Santa Cruz, Calif.) followed by secondary Cy3-, FITC- or Alexa488-labeled antibodies and confocal microscopic visualization (Bio-Rad Radiance2100).

PKCα [1] = test: Phospho-PKCα blot of HSG cell lysates; type: cell-based, human; settings: for effect on lacritin-dependent PKCα dephosphorylation: pertussis toxin 100 ng/ml, Go 6976, U73122, U73343 1 μM
Method: (§1) For phosphotyrosine blotting and mitogenesis assays, cells in serum-containing media were seeded overnight in 24-well plates at a density of 0.5×10^5 cells/mm^2 corresponding to 20-30% confluency after cell attachment, incubated in serum-free media without supplements for 24 h (phosphotyrosine) or washed with serum-free media without supplements three times (mitogenesis) and incubated with lacritin (1-1000 nM), or positive controls EGF (1.6 nM) and 10% fetal bovine serum, or negative controls bovine serum albumin or no additive in serum-free media without supplements for the indicated times (phosphotyrosine) or 30 h (mitogenesis). For phosphotyrosine assays, cells were extracted in 1% NP40 containing sodium vanadate (2 mg/ml), DTT (5 mg/ml), protease inhibitors, 50 mM HEPES, 100 mM NaCl, and 2 mM EDTA; then separated by 10% SDS PAGE, transferred and blotted. The following antibodies (Cell Signaling Technology, Beverly Mass.) were tested: antiphosphotyrosine antibody (P-Tyr-100), anti-phospho-PKC αβII, anti-PKCα, anti-phospho-PKCδ, anti-phospho-PKC (pan), anti-p44/42 MAPK, anti-phospho-Raf, anti-phospho-SAPK/JNK, anti-phospho-p38 Map kinase, anti-phospho-Raf, anti-phospho-Akt, anti-phospho-CaMKII, anti-phospho-MARCKS, or anti-tubulin (loading control). After washing, bound antibodies were detected with peroxidase-labeled secondary antibody and ECL. With the exception of at least nine proteins in the P-Tyr-100 blot (FIG. 1), none of the effectors tested above appeared to be phospho-activated during lacritin signaling (not shown). For mitogenesis (Hussaini et al., '00), [^3H]-thymidine (2 mCi/ml) was added for the next 6 h. Incorporation was stopped with ice-cold phosphate buffered saline and followed by addition of cold and then room temperature trichloracetic acid (10%) for 10 min each, washing of cells with phosphate buffered saline, solubilization with 1 N sodium hydroxide, neutralization with 1 N hydrochloric acid, addition of scintillation fluid and then quantitation in a scintillation counter. To deplete PKCα in HSG cells, a pool of four PKCα-specific siRNAs (100 nM) were transfected via LipofectAMINE 2000 in Opti-MEMI Reduced Serum Medium (Invitrogen, Grand Island N.Y.) without serum and antibiotics according to manufacturer's instructions. Each of the four siRNAs was also individually transfected. In negative controls, cells were transfected with a pool of four lamin-specific siRNAs (Upstate LLC, Charlottesville Va.; Dharmacon Inc, Lafayette Colo.). Seventy-two hours post-transfection, mitogenesis was assessed by co-addition of 10 […] lacritin and [^3H]-thymidine (2 mCi/ml) (Amersham, Piscataway N.J.) for 24 hrs. PKCα depletion was confirmed by Western blotting.
We imaged PKCα in cells 15 min after treatment (FIG. 8). Nonmitogenic construct/fragment C-25 (10 nM) had no effect, leaving PKCa diffusely distributed throughout the cytoplasm. […] The phosphorylation state of PKCα influences its translocation site. Hyperphosphorylated PKCα becomes associated with the plasma membrane whereas hypophosphorylated or dephosphorylated PKCα is known to translocate to the perinuclear Golgi region. To determine if the latter is true and if so over what time course, we treated cells with lacritin, N-24 and C-25, and then blotted cell lysates for phospho-PKC ? (FIG. 8B). 10 nM lacritin promotes PKC ? dephosphorylation within 1 min of addition. This form is sustained for at least 15 min, but by 30 min has returned to baseline phosphorylation. Dephosphorylation triggered by increasing molar levels of lacritin or N-24 mirrored the proliferation response with optimal dephosphorylation at 10 nM. Non-mitogenic C-25 had no effect, whereas positive control 4β-phorbol 12-myristate 13-acetate-promoted hyperphosphorylation.

PKCα [2] = test: PKCα translocation in HSG cells (immunofluorescence, fractionation); type: cell-based, human; settings: for effect on lacritin-dependent PKCα translocation: pertussis toxin 100 ng/ml, Go 6976, U73122, U73343, cyclosporine 1 μM, nifedipine 10 μM
From the text: In order to dissect the molecular pathways leading to the cell survival by lacritin, protein kinases and transcriptional factors were studied by Western blotting and immunofluorescence microscopy.
Images were acquired at 2-3 s intervals using LaserSharp2000 software (Bio-Rad) and store on disc for later analysis.

HSG cells = test: Calcium mobilization imaging in HSG cells (Fluo-4); type: cell-based, human; settings: for effect on lacritin-stimulated calcium mobilization: preincubation: pertussis toxin 100 ng/ml, or siRNA
Method: Cells were seeded at 1.4×10^4 HSG cells/mm^2 or 0.7×10^4 HSG cells/mm^2 on Matrigel-coated (100 μg/ml; BD Biosciences; San Diego Calif.) coverslips to respectively achieve 70-80% confluency after overnight or 48 h growth in 6-well plates containing phenol red-free Dulbecco's modified Eagle's medium with 10% fetal calf serum.
Other cells were incubated (0.7×10^4HSG cells/mm^2 overnight plating) with 100 ng/ml pertussis toxin (Calbiochem; San Diego Calif.) in phenol red-free Dulbecco's modified Eagle's medium with 10% fetal calf serum; or vehicle alone). Cells were washed with calcium-free/phenol red-free Hanks basic salt solution, 20 mM N-2-hydroxyethylpiperazine-N′-2-ethane sulfonic acid and then incubated for 1 h at room temperature with the same solution containing fluo-4 μM at 4 μM (FluoroPure grade [Molecular Probes; Eugene Oreg.] dissolved in DMSO plus 20% Pluronic F-127). Cells were washed three times for 60 min at room temperature with calcium-free/phenol red-free Hanks basic salt solution with 5 mM Ca^2+ or 5 mM EGTA. Temperature was stabilized for 5 min at 37° C. coverslips were placed on the stage of a TE-200 epifluorescent microscope (Bio-Rad Radiance2100 confocal/multiphoton system using Plan Fluor 60×NA 1.4 Oil IR objective lens [Bio-Rad, Hercules Calif.] as part of the W. M. Keck Center for Cellular Imaging, University of Virginia), subjected to a 488 nm argon laser light source with emission at 528 nm. Baseline monitoring was followed by addition of lacritin or deletion fragments in phenol red-free Hanks basic salt solution.

[3] = system: human corneal epithelial (HCE) cell line; test: TNF-α-induced cell death in HCE cells (MTT cell viability); type: cell-based
Method: (§2) Lacritin-induced proliferation and calcium signaling was studied in the human corneal epithelial (HCE) cell line. HCE cells were grown at 37° C. in DMEM F/12 supplemented with 10% FBS and 50 μg/ml gentamicin. Each experiment was done in a dose- and time-dependent manner using TNF-α (5-20 ng/ml) and lacritin (1-10 nM). Cell viability was measured spectrophotometrically at an absorbance of 570 nm using the MTT assay. Caspase-8 activity was detected fluorometrically by measuring cleavage of the fluorogenic substrate IETD-pNA at an excitation wavelength of 405 nm. Lacritin-induced cell proliferation was studied by H3-thymidine incorporation and via fluorescence-based detection of PKC, PLC and cAMP. Calcium signaling was detected by confocal microscopy of Fluo-4 loaded cells.

caspase-9 = test: Caspase-9 activity in human corneal epithelial cells treated with TNF-α; type: cell-based
Method: FIG. 13 graphically illustrates the ability of lacritin polypeptides (10 nM) to block TNFα induced caspase-9 activity in human corneal epithelial cells. The ordinate represents relative fluorescence units. White bars indicate 6 hours and diagonally-hatched bars indicate 9 hours.
Caspase-9 activity was measured in cells treated with various combinations of TNF-α, fragments of lacritin, and the PKC inhibitor Go6976. […] The PKC-α inhibitor Go6976 and C-25 fail to block this increase of the downstream initiator caspase-9.

caspase-8 = test: Caspase-8 activity in human corneal epithelial cells treated with TNF-α; type: cell-based
Method: FIG. 12 graphically illustrates the ability of lacritin polypeptides to block TNFα induced caspase-8 activity in human corneal epithelial cells. The ordinate represents relative fluorescence units. White bars indicate 1 hour and diagonally-hatched bars indicate 6 hours.
as §2

[4] = system: human salivary ductal (HSG) cells; test: 3H-thymidine uptake mitogenesis assay; type: cell-based; settings: 10 nM; compared to intact lacritin
Method: as §1

COc1ccc2c(c1)CC[C@@H]1[C@@H]2CC[C@]2(C)[C@@H](NCCCCCCN3C(=O)C=CC3=O)CC[C@@H]12 [U73122]
effect on lacritin-dependent NFATC1 translocation (NFATC1): inhibited
effect on lacritin-dependent PKCα dephosphorylation (PKCα [1]): inhibited
effect on lacritin-dependent PKCα translocation (PKCα [2]): inhibited
effect on carbachol-stimulated calcium mobilization (HSG cells; U73122 1 μM, Go 6976 1 μM, even at 10 μM): inhibited
effect on lacritin-stimulated calcium mobilization (HSG cells; U73122 1 μM, Go 6976 1 μM): inhibited

C/C=C(/C)C(=O)O[C@H]1C(C)=C2[C@H]([C@@H]1OC(=O)CCCCCCC)[C@@](C)(OC(C)=O)C[C@H](OC(=O)CCC)[C@@]1(O)[C@H]2OC(=O)[C@@]1(C)O [thapsigargin]
effect on lacritin-dependent NFATC1 translocation (NFATC1): inhibited
effect on lacritin-dependent PKCα translocation (PKCα [2]): inhibited

TNF-α [reference compound]
TNF-α-induced cell death ([3]; after 18 hr): 32.2±2.6%
TNF-α-induced cell death ([3]; after 30 hr): 73.7±10%
increase in caspase-9 activity (caspase-9; TNF-α alone): multifold increase
increase in caspase-8 activity (caspase-8; TNF-α alone): three-fold increase; also recorded: multifold increase

CCCCCCCCCCCCCC(=O)O[C@@H]1[C@@H](C)[C@@]2(O)[C@@H](C=C(CO)C[C@]3(O)C(=O)C(C)=C[C@@H]23)[C@@H]2C(C)(C)[C@]12OC(C)=O [4β-phorbol 12-myristate 13-acetate, reference compound]
effect on PKCα phosphorylation (PKCα [1]): hyperphosphorylation
PKCα translocation (PKCα [2]; 15 min after treatment): concentrated PKCα solely in the plasma membrane

C-59: deletion of the 59 carboxy terminal amino acids of mature lacritin (SEQ ID NO:10) (EDASSDSTGADPAQEAGTSKPNEEISGPAEPASPPETTTTAQETSAAAVQGTAKVTSSRQ; homo sapiens)
mitogenic activity of deletion constructs [4]: inactive

O=C(O)CN(CCOCCOCCN(CC(=O)O)CC(=O)O)CC(=O)O [EGTA]
effect on lacritin-dependent NFATC1 translocation (NFATC1): non-inhibitory

pertussis toxin
effect on lacritin-dependent NFATC1 translocation (NFATC1): inhibited
effect on lacritin-dependent PKCα dephosphorylation (PKCα [1]): inhibited
effect on lacritin-dependent PKCα translocation (PKCα [2]): inhibited
effect on lacritin-stimulated calcium mobilization (HSG cells; U73122 1 μM, Go 6976 1 μM): completely inhibited

[Gd] [gadolinium]
effect on lacritin-dependent NFATC1 translocation (NFATC1): non-inhibitory

COc1ccc2c(c1)CC[C@@H]1[C@@H]2CC[C@]2(C)[C@@H](NCCCCCCN3C(=O)CCC3=O)CC[C@@H]12 [U73343]
effect on lacritin-dependent PKCα dephosphorylation (PKCα [1]): full translocation and dephosphorylation
effect on lacritin-dependent PKCα translocation (PKCα [2]): full translocation and dephosphorylation

C[N+](C)(C)CCOC(N)=O [carbachol]
calcium mobilization after pertussis toxin preincubation (HSG cells; positive control replacing lacritin): full calcium mobilization

B1: C-15: deletion of the 15 carboxy terminal amino acids of mature lacritin (SEQ ID NO:10) (protein)
chain: EDASSDSTGADPAQEAGTSKPNEEISGPAEPASPPETTTTAQETSAAAVQGTAKVTSSRQELNPLKSIVEKSILLTEQALAKAGKGMHGGVPGGKQFIENGSEF
modifications: homo sapiens
mitogenic activity of deletion constructs [4]: diminished; also recorded: partially active

B2: C-10: deletion of the 10 carboxy terminal amino acids of mature lacritin (SEQ ID NO:10) (protein)
chain: EDASSDSTGADPAQEAGTSKPNEEISGPAEPASPPETTTTAQETSAAAVQGTAKVTSSRQELNPLKSIVEKSILLTEQALAKAGKGMHGGVPGGKQFIENGSEFAQKLL
modifications: homo sapiens
mitogenic activity of deletion constructs [4]: active
effect on TNF-α-induced caspase-9 activity (caspase-9; lacritin polypeptides 10 nM): blocked
effect on TNF-α-induced caspase-8 activity (caspase-8): blocked

B3: C-20: deletion of the 20 carboxy terminal amino acids of mature lacritin (SEQ ID NO:10) (protein)
chain: EDASSDSTGADPAQEAGTSKPNEEISGPAEPASPPETTTTAQETSAAAVQGTAKVTSSRQELNPLKSIVEKSILLTEQALAKAGKGMHGGVPGGKQFIE
modifications: homo sapiens
mitogenic activity of deletion constructs [4]: completely abrogated activity; also recorded: inactive
